According to US20260026504A1, “COMPOUND […] STRUCTURE, APPLICATION, AND INSECTICIDE” (Anhui Shengfeng Biochemical Co., Ltd, priority 2022, published 2026):
Like-named read-outs stand apart in the source and are kept apart here.

Tested on: diamondback moth (Plutella xylostella) second instar larvae
Test: Toxicity to diamondback moth larvae by the leaf-dipping method
Type: in vivo
Conditions: corrected mortality grade, 1 ppm, cabbage leaf dip; for mortality at 1 ppm: Plutella xylostella, in Brassica oleracea, foliar
Description: Determining the toxicity activity of part of compounds on diamondback moth (Plutella xylostella) instar larvae by the leafdipping method.
The test agents of the compounds in Table 2 were weighed out accurately with an electronic analytical balance, and the original drug was dissolved in a 10000 ppm solution with dimethyl sulfoxide as the solvent and then diluted with 0.1% of Triton solution to 1 ppm and 0.25 ppm solutions. Taking the cabbage not contacted with the liquid medicine, and cutting the leaves into 6 cm-diameter circular leaves. Soaking the leaves in the prepared liquid medicine for 15 seconds, taking out and drying, and placing the leaves into 6 cm culture dishes, wherein 1 cabbage leaf is placed in each culture dish. The same standard second instar larvae were placed in petri dishes with 10 heads per dish and 4 replicates per concentration for a total of 40 heads. After inoculation, the culture dish is placed in a constant-temperature culture chamber with the temperature of 25±1° C. and the illumination period of 16 (D) to 8 (L) h, and the number of dead and live larvae is investigated after 48 h and 72 h. A blank and a control of compound K1 and compound K2 were also provided.
The mortality is calculated according to the following formula 1, then the corrected mortality is calculated according to the formula 2, and finally the classification is carried out according to the corrected mortality value and the rating standard shown in the table 2, and the specific results are shown in the tables 3 and 4.
mortality %=(number of dead insects/total number of insects)×100% Equation 1;
corrected mortality %=[(treatment-control mortality)/(1-control mortality)]×100% Equation 2.

[1] = 48 h, 48 h, read-out: mortality (1 ppm) 48 h
[2] = 72 h, 72 h, read-out: mortality (1 ppm) 72 h

Row | SMILES | mortality at 1 ppm [1] | mortality at 1 ppm [2] | mortality (1 ppm) 72 h (72 h)
1 | Cc1cc(C2=NOC(c3cc(Cl)cc(Cl)c3)(C(F)(F)F)C2)ccc1C(=O)Nc1cn[nH]c1 (stereo not drawn) [Compound 1] | 50 to 70% | 70 to 80% | 
2 | Cc1cc(C2=NOC(c3cc(Cl)cc(Cl)c3)(C(F)(F)F)C2)ccc1C(=O)Nc1cnn(C)c1 (stereo not drawn) [Compound 2] | 80 to 90% | 100% | 
3 | CCn1cc(NC(=O)c2ccc(C3=NOC(c4cc(Cl)cc(Cl)c4)(C(F)(F)F)C3)cc2C)cn1 (stereo not drawn) [Compound 3] | 70 to 80% | 90 to 100% | 
4 | CCCn1cc(NC(=O)c2ccc(C3=NOC(c4cc(Cl)cc(Cl)c4)(C(F)(F)F)C3)cc2C)cn1 (stereo not drawn) [Compound 4] | 50 to 70% | 50 to 70% | 
5 | Cc1cc(C2=NOC(c3cc(Cl)cc(Cl)c3)(C(F)(F)F)C2)ccc1C(=O)Nc1cnn(C(C)C)c1 (stereo not drawn) [Compound 5] | 90 to 100% | 100% | 
6 | Cc1cc(C2=NOC(c3cc(Cl)cc(Cl)c3)(C(F)(F)F)C2)ccc1C(=O)Nc1cnn(CC(F)(F)F)c1 (stereo not drawn) [Compound 7] |  | 80 to 90% | 
7 | Cc1cc(C2=NOC(c3cc(Cl)cc(Cl)c3)(C(F)(F)F)C2)ccc1C(=O)Nc1cnn(CC(F)F)c1 (stereo not drawn) [Compound 8] | 50 to 70% | 80 to 90% | 
8 | Cc1cc(C2=NOC(c3cc(Cl)cc(Cl)c3)(C(F)(F)F)C2)ccc1C(=O)Nc1cnn(CCF)c1 (stereo not drawn) [Compound 9] |  | 80 to 90% | 
9 | Cc1cc(C2=NOC(c3cc(Cl)cc(Cl)c3)(C(F)(F)F)C2)ccc1C(=O)Nc1cnn(CCC(F)(F)F)c1 (stereo not drawn) [Compound 10] | 50 to 70% | 100% | 
10 | Cc1cc(C2=NOC(c3cc(Cl)cc(Cl)c3)(C(F)(F)F)C2)ccc1C(=O)Nc1cnn(CCCF)c1 (stereo not drawn) [Compound 11] | 50 to 70% | 100% | 
11 | COCn1cc(NC(=O)c2ccc(C3=NOC(c4cc(Cl)cc(Cl)c4)(C(F)(F)F)C3)cc2C)cn1 (stereo not drawn) [Compound 12] | 50 to 70% | 50 to 70% | 
12 | CCC(C)n1cc(NC(=O)c2ccc(C3=NOC(c4cc(Cl)cc(Cl)c4)(C(F)(F)F)C3)cc2C)cn1 (stereo not drawn) [Compound 16] |  | 70 to 80% | 
13 | Cc1cc(C2=NOC(c3cc(Cl)cc(Cl)c3)(C(F)(F)F)C2)ccc1C(=O)Nc1cnn(C2CC2)c1 (stereo not drawn) [Compound 23] | 100% | 100% | 
14 | Cc1cc(C2=NOC(c3cc(Cl)cc(Cl)c3)(C(F)(F)F)C2)ccc1C(=O)Nc1cnn(C2CCC2)c1 (stereo not drawn) [Compound 24] |  | 50 to 70% | 
15 | C=CCn1cc(NC(=O)c2ccc(C3=NOC(c4cc(Cl)cc(Cl)c4)(C(F)(F)F)C3)cc2C)cn1 (stereo not drawn) [Compound 27] | 50 to 70% | 70 to 80% | 
16 | C#CCn1cc(NC(=O)c2ccc(C3=NOC(c4cc(Cl)cc(Cl)c4)(C(F)(F)F)C3)cc2C)cn1 (stereo not drawn) [Compound 28] | 80 to 90% | 100% | 
17 | Cc1cc(C2=NOC(c3cc(Cl)cc(Cl)c3)(C(F)(F)F)C2)ccc1C(=O)Nc1cnn(CC2CC2)c1 (stereo not drawn) [Compound 30] |  | 50 to 70% | 
18 | Cc1cc(C2=NOC(c3cc(Cl)cc(Cl)c3)(C(F)(F)F)C2)ccc1C(=O)Nc1cnn(CC2CCCCC2)c1 (stereo not drawn) [Compound 33] |  | 50 to 70% | 
19 | COC(Cn1cc(NC(=O)c2ccc(C3=NOC(c4cc(Cl)cc(Cl)c4)(C(F)(F)F)C3)cc2C)cn1)OC (stereo not drawn) [Compound 36] |  | 50 to 70% | 
20 | Cc1cc(C2=NOC(c3cc(Cl)cc(Cl)c3)(C(F)(F)F)C2)ccc1C(=O)Nc1cnn(C2CCOC2)c1 (stereo not drawn) [Compound 39] |  | 50 to 70% | 
21 | Cc1cc(C2=NOC(c3cc(Cl)cc(Cl)c3)(C(F)(F)F)C2)ccc1C(=O)Nc1cnn(C2CCOCC2)c1 (stereo not drawn) [Compound 40] | 50 to 70% | 50 to 70% | 
22 | Cc1cc(C2=NOC(c3cc(Cl)cc(Cl)c3)(C(F)(F)F)C2)ccc1C(=O)Nc1cnn(-c2ccccc2F)c1 (stereo not drawn) [Compound 42] |  | 50 to 70% | 
23 | Cc1cc(C2=NOC(c3cc(Cl)cc(Cl)c3)(C(F)(F)F)C2)ccc1C(=O)Nc1cnn(-c2ccccc2Br)c1 (stereo not drawn) [Compound 44] |  | 50 to 70% | 
24 | Cc1cc(C2=NOC(c3cc(Cl)cc(Cl)c3)(C(F)(F)F)C2)ccc1C(=O)Nc1cnn(-c2cccc(F)c2)c1 (stereo not drawn) [Compound 47] |  | 50 to 70% | 
25 | COc1cccc(-n2cc(NC(=O)c3ccc(C4=NOC(c5cc(Cl)cc(Cl)c5)(C(F)(F)F)C4)cc3C)cn2)c1 (stereo not drawn) [Compound 51] |  | 50 to 70% | 
26 | Cc1cc(C2=NOC(c3cc(Cl)cc(Cl)c3)(C(F)(F)F)C2)ccc1C(=O)Nc1cnn(-c2ccc(F)cc2)c1 (stereo not drawn) [Compound 52] |  | 50 to 70% | 
27 | CC(=O)n1cc(NC(=O)c2ccc(C3=NOC(c4cc(Cl)cc(Cl)c4)(C(F)(F)F)C3)cc2C)cn1 (stereo not drawn) [Compound 58] |  | 50 to 70% | 

Row | SMILES | mortality at 1 ppm [1] | mortality at 1 ppm [2] | mortality (1 ppm) 72 h (72 h)
28 | CCC(=O)n1cc(NC(=O)c2ccc(C3=NOC(c4cc(Cl)cc(Cl)c4)(C(F)(F)F)C3)cc2C)cn1 (stereo not drawn) [Compound 59] |  | 50 to 70% | 
29 | CCCC(=O)n1cc(NC(=O)c2ccc(C3=NOC(c4cc(Cl)cc(Cl)c4)(C(F)(F)F)C3)cc2C)cn1 (stereo not drawn) [Compound 60] |  | 50 to 70% | 
30 | Cc1cc(C2=NOC(c3cc(Cl)cc(Cl)c3)(C(F)(F)F)C2)ccc1C(=O)Nc1cnn(C(=O)C2CCC2)c1 (stereo not drawn) [Compound 64] |  | 50 to 70% | 
31 | Cc1cc(C2=NOC(c3cc(Cl)cc(Cl)c3)(C(F)(F)F)C2)ccc1C(=O)Nc1cnn(C(=O)N(C)C)c1 (stereo not drawn) [Compound 67] |  | 90 to 100% | 
32 | CCN(CC)C(=O)n1cc(NC(=O)c2ccc(C3=NOC(c4cc(Cl)cc(Cl)c4)(C(F)(F)F)C3)cc2C)cn1 (stereo not drawn) [Compound 68] |  | 50 to 70% | 
33 | Cc1cc(C2=NOC(c3cc(Cl)cc(Cl)c3)(C(F)(F)F)C2)ccc1C(=O)Nc1cnn(S(C)(=O)=O)c1 (stereo not drawn) [Compound 69] |  | 50 to 70% | 
34 | CCCS(=O)(=O)n1cc(NC(=O)c2ccc(C3=NOC(c4cc(Cl)cc(Cl)c4)(C(F)(F)F)C3)cc2C)cn1 (stereo not drawn) [Compound 71] |  | 70 to 80% | 
35 | Cc1cc(C2=NOC(c3cc(Cl)cc(Cl)c3)(C(F)(F)F)C2)ccc1C(=O)Nc1cnn(S(=O)(=O)C(C)C)c1 (stereo not drawn) [Compound 72] |  | 50 to 70% | 
36 | Cc1cc(C2=NOC(c3cc(Cl)cc(Cl)c3)(C(F)(F)F)C2)ccc1C(=O)Nc1cnn(S(=O)(=O)c2ccccc2)c1 (stereo not drawn) [Compound 73] |  | 50 to 70% | 
37 | Cc1cc(C2=NOC(c3cc(Cl)cc(Cl)c3)(C(F)(F)F)C2)ccc1C(=O)Nc1cnn(S(=O)(=O)C2CCCCC2)c1 (stereo not drawn) [Compound 75] | 90 to 100% | 90 to 100% | 
38 | CCn1nc(C)c(NC(=O)c2ccc(C3=NOC(c4cc(Cl)cc(Cl)c4)(C(F)(F)F)C3)cc2C)c1C (stereo not drawn) [Compound 97] |  | 80 to 90% | 
39 | CCCn1nc(C)c(NC(=O)c2ccc(C3=NOC(c4cc(Cl)cc(Cl)c4)(C(F)(F)F)C3)cc2C)c1C (stereo not drawn) [Compound 98] |  | 50 to 70% | 
40 | CCC(CC)n1nc(C)c(NC(=O)c2ccc(C3=NOC(c4cc(Cl)cc(Cl)c4)(C(F)(F)F)C3)cc2C)c1C (stereo not drawn) [Compound 102] |  | 50 to 70% | 
41 | Cc1cc(C2=NOC(c3cc(Cl)cc(Cl)c3)(C(F)(F)F)C2)ccc1C(=O)Nc1c(C)nn(Cc2ccccc2)c1C (stereo not drawn) [Compound 104] |  | 50 to 70% | 
42 | Cc1cc(C2=NOC(c3cc(Cl)c(F)c(Cl)c3)(C(F)(F)F)C2)ccc1C(=O)Nc1cn[nH]c1 (stereo not drawn) [Compound 123] | 90 to 100% | 100% | 
43 | Cc1cc(C2=NOC(c3cc(Cl)c(F)c(Cl)c3)(C(F)(F)F)C2)ccc1C(=O)Nc1cnn(C)c1 (stereo not drawn) [Compound 124] | 80 to 90% | 100% | 
44 | CCn1cc(NC(=O)c2ccc(C3=NOC(c4cc(Cl)c(F)c(Cl)c4)(C(F)(F)F)C3)cc2C)cn1 (stereo not drawn) [Compound 125] | 100% | 100% | 
45 | Cc1cc(C2=NOC(c3cc(Cl)c(F)c(Cl)c3)(C(F)(F)F)C2)ccc1C(=O)Nc1cnn(C2CC2)c1 (stereo not drawn) [Compound 129] | 100% | 100% | 
46 | Cc1cc(C2=NOC(c3cc(Cl)c(F)c(Cl)c3)(C(F)(F)F)C2)ccc1C(=O)Nc1cnn(C2CCC2)c1 (stereo not drawn) [Compound 130] | 90 to 100% | 100% | 
47 | Cc1cc(C2=NOC(c3cc(Cl)c(F)c(Cl)c3)(C(F)(F)F)C2)ccc1C(=O)Nc1cnn(C2CCCC2)c1 (stereo not drawn) [Compound 131] | 80 to 90% | 100% | 
48 | Cc1cc(C2=NOC(c3cc(Cl)c(F)c(Cl)c3)(C(F)(F)F)C2)ccc1C(=O)Nc1cnn(C2CCCCC2)c1 (stereo not drawn) [Compound 132] | 50 to 70% | 100% | 
49 | Cc1cc(C2=NOC(c3cc(Cl)c(F)c(Cl)c3)(C(F)(F)F)C2)ccc1C(=O)Nc1cnn(CC2CC2)c1 (stereo not drawn) [Compound 133] | 80 to 90% | 100% | 
50 | Cc1cc(C2=NOC(c3cc(Cl)c(F)c(Cl)c3)(C(F)(F)F)C2)ccc1C(=O)Nc1cnn(CC2CCC2)c1 (stereo not drawn) [Compound 134] |  | 70 to 80% | 
51 | Cc1cc(C2=NOC(c3cc(Cl)c(F)c(Cl)c3)(C(F)(F)F)C2)ccc1C(=O)Nc1cnn(C2CCCCC2)c1 (stereo not drawn) [Compound 137] |  |  | C (80% to less than 90%)
52 | Cc1cc(C2=NOC(c3cc(Cl)c(F)c(Cl)c3)(C(F)(F)F)C2)ccc1C(=O)Nc1cnn(Cc2ccccc2)c1 (stereo not drawn) [Compound 139] |  | 50 to 70% | 
53 | CC(=O)n1cc(NC(=O)c2ccc(C3=NOC(c4cc(Cl)c(F)c(Cl)c4)(C(F)(F)F)C3)cc2C)cn1 (stereo not drawn) [Compound 140] |  | 50 to 70% | 
